Assay: xn = mol fraction of the nth substance listed
Details: 101 kPa, Liquid; for electrical conductivity: Frequency=0.0005 MHz, crison conductivimeter

CCCCn1cc[n+](C)c1.F[B-](F)(F)F [1-butyl-3-methylimidazolium tetrafluoroborate] + O
Details | electrical conductivity [S/m] | viscosity [mPa·s]
288.15 K, x2 = 0 | – | 173.5
288.15 K, x2 = 0.0476 | – | 134.1
288.15 K, x2 = 0.1091 | – | 108.4
288.15 K, x2 = 0.143 | – | 89.3
288.15 K, x2 = 0.2389 | – | 58.2
288.15 K, x2 = 0.3078 | – | 45.6
288.15 K, x2 = 0.4 | – | 32.5
288.15 K, x2 = 0.4954 | 1.4 | –
288.15 K, x2 = 0.5054 | – | 21.1
288.15 K, x2 = 0.6266 | – | 13.77
288.15 K, x2 = 0.6992 | – | 9.78
288.15 K, x2 = 0.7981 | – | 6.69
288.15 K, x2 = 0.9032 | – | 3.83
298.15 K, x2 = 0 | 0.352 | 99.2
298.15 K, x2 = 0.0476 | – | 78.7
298.15 K, x2 = 0.1091 | – | 65.6
298.15 K, x2 = 0.143 | – | 55.1
298.15 K, x2 = 0.2235 | 0.785 | –
298.15 K, x2 = 0.2389 | – | 37.7
298.15 K, x2 = 0.3078 | – | 30.2
298.15 K, x2 = 0.3705 | 1.3 | –
298.15 K, x2 = 0.4 | – | 22.1
298.15 K, x2 = 0.4835 | 1.86 | –
298.15 K, x2 = 0.4954 | 2.02 | –
298.15 K, x2 = 0.5054 | – | 14.72
298.15 K, x2 = 0.6173 | 2.75 | –
298.15 K, x2 = 0.6266 | – | 9.82
298.15 K, x2 = 0.6992 | – | 7.07
298.15 K, x2 = 0.7167 | 3.64 | –
298.15 K, x2 = 0.777 | 4.2 | –
298.15 K, x2 = 0.7981 | – | 4.89
298.15 K, x2 = 0.8168 | 4.55 | –
298.15 K, x2 = 0.8458 | 4.84 | –
298.15 K, x2 = 0.8684 | 5 | –
298.15 K, x2 = 0.8879 | 5.08 | –
298.15 K, x2 = 0.9031 | 5.09 | –
298.15 K, x2 = 0.9032 | – | 2.79
298.15 K, x2 = 0.9151 | 5.08 | –
298.15 K, x2 = 0.9245 | 5.05 | –
298.15 K, x2 = 0.9322 | 4.98 | –
298.15 K, x2 = 0.9396 | 4.84 | –
298.15 K, x2 = 0.9457 | 4.81 | –
298.15 K, x2 = 0.952 | 4.73 | –
298.15 K, x2 = 0.9572 | 4.65 | –
298.15 K, x2 = 0.9615 | 4.54 | –
298.15 K, x2 = 0.9654 | 4.41 | –
298.15 K, x2 = 0.9713 | 4.15 | –
298.15 K, x2 = 0.9801 | 3.64 | –
298.15 K, x2 = 0.9861 | 3.14 | –
298.15 K, x2 = 0.9896 | 2.68 | –
298.15 K, x2 = 0.993 | 2.11 | –
298.15 K, x2 = 0.9951 | 1.64 | –
298.15 K, x2 = 0.9961 | 1.43 | –
298.15 K, x2 = 0.9974 | 1.05 | –
298.15 K, x2 = 0.9982 | 0.788 | –
298.15 K, x2 = 0.999 | 0.475 | –
298.15 K, x2 = 0.9996 | 0.2 | –
308.15 K, x2 = 0 | – | 61.3
308.15 K, x2 = 0.0476 | – | 49.8
308.15 K, x2 = 0.1091 | – | 42.4
308.15 K, x2 = 0.143 | – | 36.3
308.15 K, x2 = 0.2389 | – | 25.9
308.15 K, x2 = 0.3078 | – | 21.1
308.15 K, x2 = 0.4 | – | 15.81
308.15 K, x2 = 0.4954 | 2.61 | –
308.15 K, x2 = 0.5054 | – | 10.8
308.15 K, x2 = 0.6266 | – | 7.33
308.15 K, x2 = 0.6992 | – | 5.34
308.15 K, x2 = 0.7981 | – | 3.75
308.15 K, x2 = 0.9032 | – | 2.47
318.15 K, x2 = 0 | – | 40.4
318.15 K, x2 = 0.0476 | – | 33.5
318.15 K, x2 = 0.1091 | – | 29.1
318.15 K, x2 = 0.143 | – | 25.3
318.15 K, x2 = 0.2389 | – | 18.62
318.15 K, x2 = 0.3078 | – | 15.47
318.15 K, x2 = 0.4 | – | 11.81
318.15 K, x2 = 0.4954 | 3.25 | –
318.15 K, x2 = 0.5054 | – | 8.24
318.15 K, x2 = 0.6266 | – | 5.68
318.15 K, x2 = 0.6992 | – | 4.18
318.15 K, x2 = 0.7981 | – | 2.96
318.15 K, x2 = 0.9032 | – | 1.717
